Data on 14 molecules can be found in PubChem BioAssay (NCI).

“And” between values parts separate entries of the source, which are not always exact repeats. Equal entries are not always repeated.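 Exposure lasted 48 hours, with cells grown in 96-well plates and compounds tested at five concentrations. Abbreviation: GI50, concentration required for 50% inhibition of growth. TGI: concentration producing complete growth inhibition.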 Bounds are passed on as bounds.

Some test systems named below: RXF-631 renal; LXFL 529 NSCLC; SNB-78 CNS; DLD-1 colon; DMS 114 small cell lung; HOP-18 NSCLC; DMS 273 small cell lung; KM20L2 colon; MDA-N; SN12K1 renal; P388 leukemia.
Common to all, as to assay: NCI tumour cell line growth inhibition, 48 h

On to `O=C(/C(=C/c1ccc(O)cc1)c1ccccc1)c1ccccc1`, for which the TGI came to 29.3 µM in the experiment with RXF-631 renal; 35.7 µM with LXFL 529 NSCLC; 70.9 µM in the experiment on SNB-78 CNS; 31 µM in the experiment on DLD-1 colon; 24.4 µM with DMS 114 small cell lung; 33.4 µM in the experiment on HOP-18 NSCLC.

For `[Cl-].[Gd+3].[O-]/N=C(\c1ccccc1)c1ccccn1.[O-]/N=C(\c1ccccc1)c1ccccn1.[O-]/N=C(\c1ccccc1)c1ccccn1`, the GI50 in the experiment on LXFL 529 NSCLC is 50.1 µM; in the experiment on DMS 273 small cell lung it was 43.8 µM; in the experiment with DLD-1 colon, 39.9 µM; in the experiment on DMS 114 small cell lung, 36.8 µM; in the experiment with KM20L2 colon, 39.7 µM. In addition, the TGI with LXFL 529 NSCLC, with DMS 273 small cell lung, with DLD-1 colon, with DMS 114 small cell lung and with KM20L2 colon was more than 100 µM throughout.

With `COC(=O)c1sc(=NC(=S)N2CCCCC2)sc1C(=O)OC`, the TGI in the experiment on RXF-631 renal, in the experiment on LXFL 529 NSCLC, with DMS 273 small cell lung, in the experiment with SNB-78 CNS, with DLD-1 colon and with DMS 114 small cell lung was more than 100 µM in each case. Besides, the TGI in the experiment on KM20L2 colon and in the experiment on HOP-18 NSCLC was more than 100 µM each time.

Molecule `O=C(Oc1ccc2c(c1)CN(Cc1ccccc1)CO2)c1ccccc1` came in with a TGI in the experiment with MDA-N of 30.7 µM.

The molecule `Cc1ccc(C2=C(Cl)C(=O)C(c3ccc(C)cc3)=C(Cl)C2=O)cc1` displayed a TGI with MDA-N of more than 100 µM.

On to `COC(=O)C1CCC(=O)N1/C(C)=N/NC(=O)Nc1ccc(Cl)c(Cl)c1` (stereo unspecified), for which the TGI in the experiment with LXFL 529 NSCLC, in the experiment with DMS 273 small cell lung, in the experiment on SNB-78 CNS, with DLD-1 colon, in the experiment with DMS 114 small cell lung and with KM20L2 colon was more than 100 µM throughout.

Consider `c1ccc2c3c([nH]c2c1)C1C2CCCCN2C(c2ccncc2)N1CC3` (stereo unspecified), for which the TGI in the experiment on LXFL 529 NSCLC is more than 100 µM; in the experiment with DMS 273 small cell lung, more than 100 µM; in the experiment with SNB-78 CNS, more than 100 µM; in the experiment with DMS 114 small cell lung it was 83.5 µM; in the experiment on KM20L2 colon, 67.1 µM.

`O=NN(CCCl)C(=O)NC1CCCCC1`: the GI50 is 25 µM in the experiment with RXF-631 renal; 17.3 µM in the experiment on LXFL 529 NSCLC; 28.2 µM and 76.7 µM with DMS 273 small cell lung; 18.4 µM and 42.2 µM with DLD-1 colon; 20.7 µM and 70.3 µM in the experiment with DMS 114 small cell lung; 34.3 µM and 163 µM with KM20L2 colon. Also, in the experiment on HOP-18 NSCLC, the GI50 is 84.4 µM. For the same molecule, the TGI in the experiment with RXF-631 renal was 132 µM; in the experiment with SN12K1 renal, 101 µM; in the experiment on LXFL 529 NSCLC it was 32.8 µM and 111 µM and 76.6 µM; with DMS 273 small cell lung, 65.1 µM and 124 µM and 170 µM; with DLD-1 colon, 39.2 µM and 98.6 µM and 86.2 µM; in the experiment with MDA-N, 134 µM. For the same molecule, the TGI in the experiment with DMS 114 small cell lung was 38.8 µM and 112 µM and 183 µM; in the experiment with P388 leukemia, 34.4 µM; with KM20L2 colon it was 96.9 µM and 144 µM and 350 µM; in the experiment on HOP-18 NSCLC, 56.2 µM and 152 µM.

Take `COC(=O)CC1CC2(C(=O)OC)c3[nH]c4ccccc4c3CCN2C1=O` (stereo unspecified): the TGI was 31.3 µM in the experiment on RXF-631 renal; more than 100 µM in the experiment with LXFL 529 NSCLC; more than 100 µM in the experiment with DMS 273 small cell lung; more than 100 µM in the experiment on SNB-78 CNS; more than 100 µM in the experiment on DLD-1 colon; more than 100 µM in the experiment on DMS 114 small cell lung. The TGI with KM20L2 colon and in the experiment with HOP-18 NSCLC was more than 100 µM each time.

On to `CC1OC(OC2C(O[C@H]3CC[C@@]4(C)C(=CC[C@H]5[C@@H]6C[C@@H]7O[C@]8(CC[C@@H](C)CO8)[C@@H](C)[C@@H]7[C@@]6(C)CC[C@@H]54)C3)OC(CO)C(OC3OC(CO)C(O)C3O)C2O)C(O)C(O)C1O` (stereo partly specified), for which, in the experiment with MDA-N, the GI50 is 1.13 µM; the TGI is 1.46 µM and 2.34 µM.

Consider `O=c1cccccc1[O-].O=c1cccccc1[O-].O=c1cccccc1[O-].[Sm+3]`, for which the GI50 was 11.3 µM in the experiment with DMS 273 small cell lung, 30.6 µM with SNB-78 CNS, 18 µM with DLD-1 colon and 15.4 µM in the experiment with KM20L2 colon. Also, the TGI in the experiment with DMS 273 small cell lung, in the experiment on SNB-78 CNS, in the experiment with DLD-1 colon and in the experiment on KM20L2 colon was more than 100 µM each time.

Consider `CCCCC[C@@H](C/C=C/CCC(=O)NC/C(=C/Cl)[C@H]1C(=O)C(C)(C)C(=O)[C@@H](C)[C@@]1(C)O)OC`, for which, in the experiment on MDA-N, the GI50 was 18.4 µM and the TGI was determined as 36.1 µM.

On to `CN(C)c1ccc(N=C2C=CC(=C(C#N)C#N)c3ccccc32)cc1`, for which the TGI in the experiment with DMS 273 small cell lung worked out at 12.6 µM; with SNB-78 CNS it was 16.7 µM; in the experiment with DLD-1 colon it was 16.1 µM; in the experiment on MDA-N, 0.441 µM; in the experiment with DMS 114 small cell lung it was 0.666 µM; with HOP-18 NSCLC, 16.3 µM.

Consider `Nc1nc(=S)c2[nH]cnc2[nH]1`, for which the TGI with RXF-631 renal was found to be 113 µM; in the experiment with SN12K1 renal it was 11.2 µM; with LXFL 529 NSCLC, 233 µM; with DMS 273 small cell lung it was 39.1 µM; with SNB-78 CNS, 172 µM; in the experiment on DLD-1 colon it was 202 µM. Besides, the TGI in the experiment on DMS 114 small cell lung stood at 36.3 µM; with P388 leukemia, 6.43 µM; with KM20L2 colon it was 67.4 µM; in the experiment on HOP-18 NSCLC, 139 µM. In the experiment with MDA-N, the GI50 was 0.541 µM and 1.24 µM.
